System: subjects with moderately to severely active RA who have an inadequate response to methotrexate (MTX)
Experiment: Study 1 (add-on to MTX) - serum CRP values
Assay type: in vivo, human
Protocol: Double-blind, placebo-controlled add on study in subjects with moderately to severely active RA who have an inadequate response to methotrexate (MTX) (oral or parenteral).
595 subjects randomized to one of 6 dose regimens of Compound 1 (dosed as [Compound 1:HCl:3H2O]) (3 dose levels administered either once or twice daily) or placebo on top of each subject's stable dose of MTX.
Compound 1 (dosed as [Compound 1:HCl:3H2O]) is dosed for twelve weeks once daily (q.d.) (50 mg, 100 mg or 200 mg) or twice daily (b.i.d.) (25 mg, 50 mg or 100 mg); or placebo.
At Week 12, the subjects on placebo who have not achieved 20% improvement in swollen joint count (SJC66) and tender joint count (TJC68) are re-randomized automatically to receive Compound 1 (dosed as a [Compound 1:HCl:3H2O]) either at 100 mg q.d. or 50 mg b.i.d. doses in a blinded fashion; subjects on 50 mg q.d. who have not achieved 20% improvement in SJC66 and TJC68 will be assigned to 100 mg q.d. and subjects on 25 mg b.i.d. that have not achieved a 20% improvement in SJC66 and TJC68 will be assigned to 50 mg b.i.d. Subjects who switch treatment at week 12 are handled as if they discontinued at week 12 for the purpose of statistical analysis, whereas subjects in the other groups will maintain their randomized treatment until Week 24.
CRP determination is available at Quest Diagnostics, Clinical Trials, Quest House, 125-135 Staines Road, Hounslow, Middlesex, TW3 3JB, United Kingdom under Catalogue n#86140.
The determination of CRP is made using Immunoturbidimetric assay for the in vitro quantitative determination of CRP in human serum and plasma on Roche/Hitachi cobas c systems, wherein human CRP agglutinates with latex particles coated with monoclonal anti-CRP antibodies. The aggregates are determined turbidimetrically (Eda et al., 1998; Price et al., 1987).
Human serum and plasma samples CRP determination was done on a Roche/Hitachi Cobas c 301 c 501/502 system which automatically calculate the analyte concentration of each sample. Samples containing precipitates are centrifuged before performing the assay.
The machine parameters are listed in Table XCI and Table XCII below, and the results at 12 weeks v using either LOCF are shown in Table XCIII and below. The Hommel-corrected p-value for the pairwise comparisons of each group with placebo is shown.
The number of subjects (N) provided in each groups corresponds to the number of subjects starting the study in each group, and the CRP data reported below corresponds to the responding subjects continuing for the entire 24 weeks on their initial treatment course.

O=C(Nc1nc2cccc(-c3ccc(CN4CCS(=O)(=O)CC4)cc3)n2n1)C1CC1 [Compound 1, cyclopropanecarboxylic acid {5-[4-(1,1-dioxo-thiomorpholin-4-ylmethyl)-phenyl]-[1,2,4]triazolo[1,5-a]pyridin-2-yl}-amide]
CRP mean CFB mg/L (LOCF) (50 mg q.d., week 1, 12 weeks results): -7.95 mg/L
CRP mean CFB mg/L (LOCF) (50 mg q.d., week 1, 24 weeks results): -7.95 mg/L
CRP mean CFB mg/L (LOCF) (50 mg q.d., week 2, 12 weeks results): -8.23 mg/L
CRP mean CFB mg/L (LOCF) (50 mg q.d., week 2, 24 weeks results): -8.23 mg/L
CRP mean CFB mg/L (LOCF) (50 mg q.d., week 4, 12 weeks results): -10.18 mg/L
CRP mean CFB mg/L (LOCF) (50 mg q.d., week 4, 24 weeks results): -10.18 mg/L
CRP mean CFB mg/L (LOCF) (50 mg q.d., week 12, 12 weeks results): -13.15 mg/L
CRP mean CFB mg/L (LOCF) (50 mg q.d., week 12, 24 weeks results): -13.15 mg/L
CRP mean CFB mg/L (LOCF) (50 mg q.d., week 16, 24 weeks results): -13.55 mg/L
CRP mean CFB mg/L (LOCF) (50 mg q.d., week 20, 24 weeks results): -13.12 mg/L
CRP mean CFB mg/L (LOCF) (50 mg q.d., week 24, 24 weeks results): -15.22 mg/L
CRP mean CFB mg/L (LOCF) (50 mg q.d., week 8, 12 weeks results): -12.02 mg/L
CRP mean CFB mg/L (LOCF) (50 mg q.d., week 8, 24 weeks results): -12.02 mg/L
CRP mean CFB mg/L (LOCF) (100 mg q.d., week 1, 12 weeks results): -11.02 mg/L
CRP mean CFB mg/L (LOCF) (100 mg q.d., week 1, 24 weeks results): -11.02 mg/L
CRP mean CFB mg/L (LOCF) (100 mg q.d., week 2, 12 weeks results): -12.94 mg/L
CRP mean CFB mg/L (LOCF) (100 mg q.d., week 2, 24 weeks results): -12.94 mg/L
CRP mean CFB mg/L (LOCF) (100 mg q.d., week 4, 12 weeks results): -13.18 mg/L
CRP mean CFB mg/L (LOCF) (100 mg q.d., week 4, 24 weeks results): -13.18 mg/L
CRP mean CFB mg/L (LOCF) (100 mg q.d., week 8, 24 weeks results): -12.48 mg/L
CRP mean CFB mg/L (LOCF) (100 mg q.d., week 12, 12 weeks results): -13.57 mg/L
CRP mean CFB mg/L (LOCF) (100 mg q.d., week 12, 24 weeks results): -13.57 mg/L
CRP mean CFB mg/L (LOCF) (100 mg q.d., week 16, 24 weeks results): -11.66 mg/L
CRP mean CFB mg/L (LOCF) (100 mg q.d., week 20, 24 weeks results): -14.50 mg/L
CRP mean CFB mg/L (LOCF) (100 mg q.d., week 24, 24 weeks results): -14.89 mg/L
CRP mean CFB mg/L (LOCF) (100 mg q.d., week 8, 12 weeks results): -12.48 mg/L
CRP mean CFB mg/L (LOCF) (200 mg q.d., week 1, 12 weeks results): -17.06 mg/L
CRP mean CFB mg/L (LOCF) (200 mg q.d., week 1, 24 weeks results): -17.06 mg/L
CRP mean CFB mg/L (LOCF) (200 mg q.d., week 2, 12 weeks results): -17.51 mg/L
CRP mean CFB mg/L (LOCF) (200 mg q.d., week 2, 24 weeks results): -17.51 mg/L
CRP mean CFB mg/L (LOCF) (200 mg q.d., week 4, 12 weeks results): -17.94 mg/L
CRP mean CFB mg/L (LOCF) (200 mg q.d., week 4, 24 weeks results): -17.94 mg/L
CRP mean CFB mg/L (LOCF) (200 mg q.d., week 8, 24 weeks results): -17.22 mg/L
CRP mean CFB mg/L (LOCF) (200 mg q.d., week 12, 12 weeks results): -17.24 mg/L
CRP mean CFB mg/L (LOCF) (200 mg q.d., week 12, 24 weeks results): -17.24 mg/L
CRP mean CFB mg/L (LOCF) (200 mg q.d., week 16, 24 weeks results): -20.38 mg/L
CRP mean CFB mg/L (LOCF) (200 mg q.d., week 20, 24 weeks results): -17.89 mg/L
CRP mean CFB mg/L (LOCF) (200 mg q.d., week 24, 24 weeks results): -15.57 mg/L
CRP mean CFB mg/L (LOCF) (200 mg q.d., week 8, 12 weeks results): -17.22 mg/L
CRP mean CFB mg/L (LOCF) (2 × 25 mg b.i.d., week 2, 12 weeks results): -10.06 mg/L
CRP mean CFB mg/L (LOCF) (2 × 25 mg b.i.d., week 2, 24 weeks results): -10.06 mg/L
CRP mean CFB mg/L (LOCF) (2 × 25 mg b.i.d., week 4, 12 weeks results): -7.72 mg/L
CRP mean CFB mg/L (LOCF) (2 × 25 mg b.i.d., week 4, 24 weeks results): -7.72 mg/L
CRP mean CFB mg/L (LOCF) (2 × 25 mg b.i.d., week 8, 12 weeks results): -10.94 mg/L
CRP mean CFB mg/L (LOCF) (2 × 25 mg b.i.d., week 8, 24 weeks results): -10.94 mg/L
CRP mean CFB mg/L (LOCF) (2 × 25 mg b.i.d., week 12, 12 weeks results): -10.26 mg/L
CRP mean CFB mg/L (LOCF) (2 × 25 mg b.i.d., week 12, 24 weeks results): -10.26 mg/L
CRP mean CFB mg/L (LOCF) (2 × 25 mg b.i.d., week 16, 24 weeks results): -12.55 mg/L
CRP mean CFB mg/L (LOCF) (2 × 25 mg b.i.d., week 20, 24 weeks results): -12.20 mg/L
CRP mean CFB mg/L (LOCF) (2 × 25 mg b.i.d., week 24, 24 weeks results): -11.68 mg/L
CRP mean CFB mg/L (LOCF) (2 × 25 mg b.i.d., Week 1, 12 weeks results): -8.47 mg/L
CRP mean CFB mg/L (LOCF) (2 × 25 mg b.i.d., Week 1, 24 weeks results): -8.47 mg/L
CRP mean CFB mg/L (LOCF) (2 × 50 mg b.i.d., week 2, 12 weeks results): -11.03 mg/L
CRP mean CFB mg/L (LOCF) (2 × 50 mg b.i.d., week 2, 24 weeks results): -11.03 mg/L
CRP mean CFB mg/L (LOCF) (2 × 50 mg b.i.d., week 4, 12 weeks results): -13.28 mg/L
CRP mean CFB mg/L (LOCF) (2 × 50 mg b.i.d., week 4, 24 weeks results): -13.28 mg/L
CRP mean CFB mg/L (LOCF) (2 × 50 mg b.i.d., week 8, 12 weeks results): -13.25 mg/L
CRP mean CFB mg/L (LOCF) (2 × 50 mg b.i.d., week 8, 24 weeks results): -13.25 mg/L
CRP mean CFB mg/L (LOCF) (2 × 50 mg b.i.d., week 12, 12 weeks results): -12.97 mg/L
CRP mean CFB mg/L (LOCF) (2 × 50 mg b.i.d., week 12, 24 weeks results): -12.97 mg/L
CRP mean CFB mg/L (LOCF) (2 × 50 mg b.i.d., week 16, 24 weeks results): -12.57 mg/L
CRP mean CFB mg/L (LOCF) (2 × 50 mg b.i.d., week 20, 24 weeks results): -13.16 mg/L
CRP mean CFB mg/L (LOCF) (2 × 50 mg b.i.d., week 24, 24 weeks results): -11.96 mg/L
CRP mean CFB mg/L (LOCF) (2 × 50 mg b.i.d., Week 1, 12 weeks results): -10.08 mg/L
CRP mean CFB mg/L (LOCF) (2 × 50 mg b.i.d., Week 1, 24 weeks results): -10.08 mg/L
CRP mean CFB mg/L (LOCF) (2 × 100 mg b.i.d., week 2, 12 weeks results): -19.69 mg/L
CRP mean CFB mg/L (LOCF) (2 × 100 mg b.i.d., week 2, 24 weeks results): -19.69 mg/L
CRP mean CFB mg/L (LOCF) (2 × 100 mg b.i.d., week 4, 12 weeks results): -20.64 mg/L
CRP mean CFB mg/L (LOCF) (2 × 100 mg b.i.d., week 4, 24 weeks results): -20.64 mg/L
CRP mean CFB mg/L (LOCF) (2 × 100 mg b.i.d., week 8, 12 weeks results): -21.32 mg/L
CRP mean CFB mg/L (LOCF) (2 × 100 mg b.i.d., week 8, 24 weeks results): -21.32 mg/L
CRP mean CFB mg/L (LOCF) (2 × 100 mg b.i.d., week 12, 12 weeks results): -20.54 mg/L
CRP mean CFB mg/L (LOCF) (2 × 100 mg b.i.d., week 12, 24 weeks results): -20.54 mg/L
CRP mean CFB mg/L (LOCF) (2 × 100 mg b.i.d., week 16, 24 weeks results): -21.34 mg/L
CRP mean CFB mg/L (LOCF) (2 × 100 mg b.i.d., week 20, 24 weeks results): -20.80 mg/L
CRP mean CFB mg/L (LOCF) (2 × 100 mg b.i.d., week 24, 24 weeks results): -20.82 mg/L
CRP mean CFB mg/L (LOCF) (2 × 100 mg b.i.d., Week 1, 12 weeks results): -17.39 mg/L
CRP mean CFB mg/L (LOCF) (2 × 100 mg b.i.d., Week 1, 24 weeks results): -17.39 mg/L
